Measured values taken from US4753953A, “Pyridonecarboxylic acid derivatives and antibacterial pharmaceutical compositions thereof” (priority 1985, dated 1988).
Values after ≈ are worked out from the molar mass of the structure shown.

Assays:
E. coli ATCC 10536 = test: MIC, in vitro antibacterial activity (standard strains); assay type: cell-based, Escherichia coli; conditions: Escherichia coli, ATCC10536; 10^6 cells/ml; Gram -; read-out: MIC
[1] = tested on: Alcaligenes faecalis 0114002; test: as above; assay type: cell-based; conditions: Alcaligenes faecalis, 0114002; 10^6 cells/ml; Gram -; read-out: MIC
[2] = tested on: Morganella morganii IID 602; test: as above; assay type: cell-based; conditions: Morganella morganii, IID602; 10^6 cells/ml; Gram -; read-out: MIC
[3] = tested on: Citrobacter freundii IID 976; test: as above; assay type: cell-based; conditions: Citrobacter freundii, IID976; 10^6 cells/ml; Gram -; read-out: MIC
Pst. micros UPI 5464-1 = test: as above; assay type: cell-based; conditions: Parvimonas micra, UPI54641; 10^6 cells/ml; Gram +; read-out: MIC
[4] = tested on: Veillonella parvula KYA 10790; test: as above; assay type: cell-based; conditions: Veillonella parvula, KYA10790; 10^6 cells/ml; Gram -; read-out: MIC
B. fragilis 25285 = test: as above; assay type: cell-based, Bacteroides fragilis; conditions: Bacteroides fragilis, 25285; 10^6 cells/ml; Gram -; read-out: MIC
F. necrophorum S-45 = test: as above; assay type: cell-based; conditions: Fusobacterium necrophorum, S45; 10^6 cells/ml; Gram -; read-out: MIC
E. coli ML 4707 = test: as above; assay type: cell-based, Escherichia coli; conditions: Escherichia coli, ML4707, 10^6 cells/ml; Gram -; Table 1; read-out: MIC
[5] = tested on: S. aureus IID 670 (Terajima); test: as above; assay type: cell-based, Staphylococcus aureus; conditions: Staphylococcus aureus, IID670; 10^6 cells/ml; Gram +; read-out: MIC
[6] = tested on: Enterobacter cloacae IID 977; test: as above; assay type: cell-based; conditions: Enterobacter cloacae, IID977; 10^6 cells/ml; Gram -; read-out: MIC
[7] = tested on: Yersinia enterocolitica IID 981; test: as above; assay type: cell-based; conditions: Yersinia enterocolitica, IID981; 10^6 cells/ml; Gram -; read-out: MIC
P. aeruginosa IID 1210 = test: as above; assay type: cell-based, Pseudomonas aeruginosa; conditions: Pseudomonas aeruginosa, IID1210; 10^6 cells/ml; Gram -; read-out: MIC
K. pneumoniae 1-220S = test: as above; assay type: cell-based, Klebsiella pneumoniae; conditions: Klebsiella pneumoniae, 1220S; 10^6 cells/ml; Gram -; read-out: MIC
C. perfringens KYA 13123 = test: microbe, parasite or virus in culture; assay type: cell-based; conditions: Clostridium perfringens, KYA13123
[8] = tested on: Peptococcus magnus KY 017; test: MIC, in vitro antibacterial activity (standard strains); assay type: cell-based; conditions: Finegoldia magna, KY017; 10^6 cells/ml; Gram +; read-out: MIC
B. distasonis 8503 = test: as above; assay type: cell-based; conditions: Parabacteroides distasonis, 8503; 10^6 cells/ml; Gram -; read-out: MIC
[9] = tested on: Salmonella enteritidis IID 604; test: as above; assay type: cell-based; conditions: Salmonella enterica; 10^6 cells/ml; Gram -; read-out: MIC
S. aureus Smith = test: as above; assay type: cell-based, Staphylococcus aureus; conditions: Staphylococcus aureus; 10^6 cells/ml; Gram +; read-out: MIC
[10] = tested on: Clostridium difficile I-E; test: as above; assay type: cell-based; conditions: Clostridioides difficile; 10^6 cells/ml; Gram +
[11] = tested on: Eubacterium lentum GAI 5242; test: as above; assay type: cell-based; conditions: Eggerthella lenta, GAI5242; 10^6 cells/ml; Gram +; read-out: MIC
[12] = tested on: Peptostreptococcus anaerobius KYA 27337; test: as above; assay type: cell-based; conditions: Peptostreptococcus anaerobius, KYA27337; 10^6 cells/ml; Gram +; read-out: MIC
[13] = tested on: B. thetaiotaomicron (0661); test: as above; assay type: cell-based; conditions: Bacteroides thetaiotaomicron; 10^6 cells/ml; Gram -; read-out: MIC
P. aeruginosa IFO 12689 = test: as above; assay type: cell-based, Pseudomonas aeruginosa; conditions: Pseudomonas aeruginosa, IFO12689; 10^6 cells/ml; Gram -; read-out: MIC
P. cepacia GIFU 518 = test: as above; assay type: cell-based; conditions: Burkholderia cepacia, GIFU518
[14] = tested on: Staphylococcus aureus 209 P; test: as above; assay type: cell-based; conditions: Staphylococcus aureus, 209P; 10^6 cells/ml; Gram +; read-out: MIC
B. fragilis 0558 = test: as above; assay type: cell-based, Bacteroides fragilis; conditions: Bacteroides fragilis, 0558; 10^6 cells/ml; Gram -; read-out: MIC
[15] = tested on: Fusobacterium mortiferum 4249; test: as above; assay type: cell-based; conditions: Fusobacterium mortiferum, 4249; 10^6 cells/ml; Gram -; read-out: MIC
E. faecalis IID 682 = test: as above; assay type: cell-based; conditions: Enterococcus faecalis, IID682; 10^6 cells/ml; Gram +; read-out: MIC
S. pyogenes IID 692 = test: as above; assay type: cell-based, Streptococcus pyogenes; conditions: Streptococcus pyogenes, IID692; 10^6 cells/ml; Gram +; read-out: MIC
[16] = tested on: Streptococcus pyogenes (S-8); test: as above; assay type: cell-based; conditions: Streptococcus pyogenes; 10^6 cells/ml; Gram +; read-out: MIC
S. pneumoniae IID 552 = test: as above; assay type: cell-based; conditions: Streptococcus pneumoniae, IID552; 10^6 cells/ml; Gram +; read-out: MIC

C[C@@H]1CN(c2c(F)cc3c(=O)c(C(=O)O)cn(C4CC4)c3c2Cl)C[C@H]1N (relative stereo) [Example 17, 7-(trans-3-Amino-4-methyl-1-pyrrolidinyl)-8-chloro-1-cyclopropyl-6-fluoro-1,4-dihydro-4-oxo-3-quinolinecarboxylic acid]
MIC (E. coli ATCC 10536): 0.0063 µg/mL (≈ 0.0166 µM)
MIC [1]: 0.05 µg/mL (≈ 0.132 µM)
MIC [2]: 0.05 µg/mL (≈ 0.132 µM)
MIC [3]: 0.0125 µg/mL (≈ 0.0329 µM)
MIC (Pst. micros UPI 5464-1): 0.05 µg/mL (≈ 0.132 µM)
MIC [4]: 0.05 µg/mL (≈ 0.132 µM)
MIC (B. fragilis 25285): 0.05 µg/mL (≈ 0.132 µM)
MIC (F. necrophorum S-45): 0.05 µg/mL (≈ 0.132 µM)
MIC (E. coli ML 4707): 0.0063 µg/mL (≈ 0.0166 µM)
MIC [5]: 0.05 µg/mL (≈ 0.132 µM)
MIC [6]: 0.05 µg/mL (≈ 0.132 µM)
MIC [7]: 0.025 µg/mL (≈ 0.0658 µM)
MIC (P. aeruginosa IID 1210): 0.39 µg/mL (≈ 1.03 µM)
MIC (K. pneumoniae 1-220S): 0.0125 µg/mL (≈ 0.0329 µM)
MIC (C. perfringens KYA 13123): 0.05 µg/mL (≈ 0.132 µM)
MIC [8]: 0.05 µg/mL (≈ 0.132 µM)
MIC (B. distasonis 8503): 0.1 µg/mL (≈ 0.263 µM)
MIC [9]: 0.025 µg/mL (≈ 0.0658 µM)
MIC (S. aureus Smith): 0.025 µg/mL (≈ 0.0658 µM)
MIC [10]: 0.39 µg/mL
MIC [11]: 0.05 µg/mL (≈ 0.132 µM)
MIC [12]: 0.1 µg/mL (≈ 0.263 µM)
MIC [13]: 0.1 µg/mL (≈ 0.263 µM)
MIC (P. aeruginosa IFO 12689): 0.39 µg/mL (≈ 1.03 µM)
MIC (P. cepacia GIFU 518): 0.2 µg/mL (≈ 0.527 µM)
MIC [14]: 0.025 µg/mL (≈ 0.0658 µM)
MIC (B. fragilis 0558): 0.05 µg/mL (≈ 0.132 µM)
MIC [15]: 0.1 µg/mL (≈ 0.263 µM)

C[C@@H]1CN(c2c(F)cc3c(=O)c(C(=O)O)cn(C4CC4)c3c2Br)C[C@H]1N (relative stereo) [Example 32, 7-(trans-3-Amino-4-methyl-1-pyrrolidinyl)-8-bromo-1-cyclopropyl-6-fluoro-1,4-dihydro-4-oxo-3-quinolinecarboxylic acid]
MIC (E. faecalis IID 682): 0.2 µg/mL (≈ 0.471 µM)
MIC (E. coli ATCC 10536): 0.0125 µg/mL (≈ 0.0295 µM)
MIC [1]: 0.1 µg/mL (≈ 0.236 µM)
MIC [2]: 0.05 µg/mL (≈ 0.118 µM)
MIC [3]: 0.025 µg/mL (≈ 0.0589 µM)
MIC (Pst. micros UPI 5464-1): 0.1 µg/mL (≈ 0.236 µM)
MIC [4]: 0.1 µg/mL (≈ 0.236 µM)
MIC (B. fragilis 25285): 0.1 µg/mL (≈ 0.236 µM)
MIC (F. necrophorum S-45): 0.1 µg/mL (≈ 0.236 µM)
MIC (E. coli ML 4707): 0.0125 µg/mL (≈ 0.0295 µM)
MIC (S. pyogenes IID 692): 0.2 µg/mL (≈ 0.471 µM)
MIC [5]: 0.05 µg/mL (≈ 0.118 µM)
MIC [6]: 0.05 µg/mL (≈ 0.118 µM)
MIC [7]: 0.025 µg/mL (≈ 0.0589 µM)
MIC (P. aeruginosa IID 1210): 0.78 µg/mL (≈ 1.84 µM)
MIC (K. pneumoniae 1-220S): 0.05 µg/mL (≈ 0.118 µM)
MIC [16]: 0.1 µg/mL (≈ 0.236 µM)
MIC (C. perfringens KYA 13123): 0.2 µg/mL (≈ 0.471 µM)
MIC [8]: 0.05 µg/mL (≈ 0.118 µM)
MIC (B. distasonis 8503): 0.2 µg/mL (≈ 0.471 µM)
MIC [9]: 0.05 µg/mL (≈ 0.118 µM)
MIC (S. aureus Smith): 0.025 µg/mL (≈ 0.0589 µM)
MIC [10]: 0.78 µg/mL
MIC [11]: 0.1 µg/mL (≈ 0.236 µM)
MIC [12]: 0.2 µg/mL (≈ 0.471 µM)
MIC (S. pneumoniae IID 552): 0.1 µg/mL (≈ 0.236 µM)
MIC [13]: 0.2 µg/mL (≈ 0.471 µM)
MIC (P. aeruginosa IFO 12689): 0.39 µg/mL (≈ 0.919 µM)
MIC [14]: 0.025 µg/mL (≈ 0.0589 µM)
MIC (B. fragilis 0558): 0.05 µg/mL (≈ 0.118 µM)
MIC [15]: 0.2 µg/mL (≈ 0.471 µM)

C[C@H]1CN(c2cc3c(cc2F)c(=O)c(C(=O)O)cn3C2CC2)C[C@H]1N (relative stereo) [Example 33, 7-(cis-3-Amino-4-methyl-1-pyrrolidinyl)-1-cyclopropyl-6-fluoro-1,4-dihydro-4-oxo-3-quinolinecarboxylic acid]
MIC (E. faecalis IID 682): 0.39 µg/mL (≈ 1.13 µM)
MIC (E. coli ATCC 10536): 0.05 µg/mL (≈ 0.145 µM)
MIC [1]: 0.2 µg/mL (≈ 0.579 µM)
MIC [2]: 0.05 µg/mL (≈ 0.145 µM)
MIC [3]: 0.05 µg/mL (≈ 0.145 µM)
MIC (Pst. micros UPI 5464-1): 0.39 µg/mL (≈ 1.13 µM)
MIC [4]: 0.39 µg/mL (≈ 1.13 µM)
MIC (B. fragilis 25285): 1.56 µg/mL (≈ 4.52 µM)
MIC (F. necrophorum S-45): 1.56 µg/mL (≈ 4.52 µM)
MIC (E. coli ML 4707): 0.05 µg/mL (≈ 0.145 µM)
MIC (S. pyogenes IID 692): 0.39 µg/mL (≈ 1.13 µM)
MIC [5]: 0.1 µg/mL (≈ 0.29 µM)
MIC [6]: 0.05 µg/mL (≈ 0.145 µM)
MIC [7]: 0.05 µg/mL (≈ 0.145 µM)
MIC (P. aeruginosa IID 1210): 1.56 µg/mL (≈ 4.52 µM)
MIC (K. pneumoniae 1-220S): 0.05 µg/mL (≈ 0.145 µM)
MIC [16]: 0.78 µg/mL (≈ 2.26 µM)
MIC (C. perfringens KYA 13123): 0.78 µg/mL (≈ 2.26 µM)
MIC [8]: 0.39 µg/mL (≈ 1.13 µM)
MIC (B. distasonis 8503): 6.25 µg/mL (≈ 18.1 µM)
MIC [9]: 0.05 µg/mL (≈ 0.145 µM)
MIC (S. aureus Smith): 0.1 µg/mL (≈ 0.29 µM)
MIC [10]: 6.25 µg/mL
MIC [11]: 0.78 µg/mL (≈ 2.26 µM)
MIC [12]: 1.56 µg/mL (≈ 4.52 µM)
MIC (S. pneumoniae IID 552): 0.39 µg/mL (≈ 1.13 µM)
MIC [13]: 6.25 µg/mL (≈ 18.1 µM)
MIC (P. aeruginosa IFO 12689): 0.39 µg/mL (≈ 1.13 µM)
MIC [14]: 0.05 µg/mL (≈ 0.145 µM)
MIC (B. fragilis 0558): 1.56 µg/mL (≈ 4.52 µM)
MIC [15]: 1.56 µg/mL (≈ 4.52 µM)
